# Experimental data taken from patent US20180169242A1, “PHARMACEUTICAL COMBINATION FOR CANCER TREATMENT AND THE THERAPEUTIC USE THEREOF” (Shiner Pharm Corp., priority 2016, published 2018).
# System: Lewis lung carcinoma cells
# Assay: Local tumor growth (tumor volume) in Lewis lung carcinoma animal model
# Format: in vivo, C57BL/6 mice
# Details: metformin 200 mg/kg/day, fluvastatin 80 mg/kg/day
# Description: Lewis lung carcinoma (LLC) model was established.
# The cancer inhibiting effect of metformin and statin was examined. After the mice were sacrificed, tumor volume on the right thigh of the mice was measured to deteiiiiine local tumor growth.
compound,measurement,setting,value
CN(C)C(=N)N=C(N)N [metformin],therapeutic effect on tumor volume compared with the sham group,"no irradiation, day 7 to day 11, tumor volume on right thigh at day 21",did not exhibit any therapeutic effect
same,local tumor growth / tumor volume when combined with radiotherapy,"with 40 Gy irradiation in two 20 Gy fractions (day 8, day 10), compared with RT alone, RT+M and RT+S, day 21",neither combining radiotherapy with metformin alone or with statin alone could suppress local tumor growth
